PubChem BioAssay (NCI)
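Protocol summary: plate cells (96-well), add compound at 5 concentrations, incubate 48 h, interpolate endpoints linearly. TGI: total growth inhibition.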

Key:
Test in all cases: NCI tumour cell line growth inhibition, 48 h
NCI/ADR-RES ovarian = test system: NCI/ADR-RES ovarian
SNB-19 CNS = test system: SNB-19 CNS
SK-MEL-2 melanoma = test system: SK-MEL-2 melanoma
COLO 205 colon = test system: COLO 205 colon
SW-620 colon = test system: SW-620 colon
SR leukemia = test system: SR leukemia
LOX IMVI melanoma = test system: LOX IMVI melanoma
HCT-15 colon = test system: HCT-15 colon
MALME-3M melanoma = test system: MALME-3M melanoma
786-0 renal = test system: 786-0 renal
OVCAR-5 ovarian = test system: OVCAR-5 ovarian
MDA-MB-435 = test system: MDA-MB-435
U251 CNS = test system: U251 CNS
HOP-92 NSCLC = test system: HOP-92 NSCLC
SF-539 CNS = test system: SF-539 CNS
UACC-62 melanoma = test system: UACC-62 melanoma
IGROV1 ovarian = test system: IGROV1 ovarian
NCI-H23 lung = test system: NCI-H23 lung
HS 578T breast = test system: HS 578T breast
T-47D breast = test system: T-47D breast
CAKI-1 renal = test system: CAKI-1 renal
UO-31 renal = test system: UO-31 renal
PC-3 prostate = test system: PC-3 prostate
SNB-75 CNS = test system: SNB-75 CNS
K-562 leukemia = test system: K-562 leukemia
DU-145 prostate = test system: DU-145 prostate
OVCAR-3 ovarian = test system: OVCAR-3 ovarian
ACHN renal = test system: ACHN renal
RPMI-8226 leukemia = test system: RPMI-8226 leukemia
MOLT-4 leukemia = test system: MOLT-4 leukemia
HT29 colon = test system: HT29 colon
SK-MEL-5 melanoma = test system: SK-MEL-5 melanoma
RXF 393 renal = test system: RXF 393 renal
SF-295 CNS = test system: SF-295 CNS
M14 melanoma = test system: M14 melanoma
A549 NSCLC = test system: A549 NSCLC
EKVX NSCLC = test system: EKVX NSCLC
CCRF-CEM leukemia = test system: CCRF-CEM leukemia
TK-10 renal = test system: TK-10 renal
BT-549 breast = test system: BT-549 breast
NCI-H226 lung = test system: NCI-H226 lung
HCT-116 colon = test system: HCT-116 colon
A498 renal = test system: A498 renal
HL-60(TB) leukemia = test system: HL-60(TB) leukemia
UACC-257 melanoma = test system: UACC-257 melanoma
NCI-H460 lung = test system: NCI-H460 lung
MDA-N = test system: MDA-N
HCC-2998 colon = test system: HCC-2998 colon
MCF7 breast = test system: MCF7 breast
KM12 colon = test system: KM12 colon
MDA-MB-231 breast = test system: MDA-MB-231 breast
SK-OV-3 ovarian = test system: SK-OV-3 ovarian
OVCAR-4 ovarian = test system: OVCAR-4 ovarian
SK-MEL-28 melanoma = test system: SK-MEL-28 melanoma
NCI-H522 lung = test system: NCI-H522 lung
OVCAR-8 ovarian = test system: OVCAR-8 ovarian
SF-268 CNS = test system: SF-268 CNS
SN12C renal = test system: SN12C renal
HOP-62 NSCLC = test system: HOP-62 NSCLC

Compound: COc1ccc(NC2=NCCO2)c2c1CCCC2
- TGI (NCI/ADR-RES ovarian): > 100 µM
- TGI (SNB-19 CNS): > 100 µM
- TGI (SK-MEL-2 melanoma): 42.6 µM
- TGI (COLO 205 colon): > 100 µM
- TGI (SW-620 colon): > 100 µM
- TGI (SR leukemia): 88.2 µM
- TGI (LOX IMVI melanoma): > 100 µM
- TGI (HCT-15 colon): > 100 µM
- TGI (MALME-3M melanoma): > 100 µM
- TGI (786-0 renal): > 100 µM
- TGI (OVCAR-5 ovarian): > 100 µM
- TGI (MDA-MB-435): > 100 µM
- TGI (U251 CNS): > 100 µM
- TGI (HOP-92 NSCLC): 79.5 µM
- TGI (SF-539 CNS): > 100 µM
- TGI (UACC-62 melanoma): 89.2 µM
- TGI (IGROV1 ovarian): > 100 µM
- TGI (NCI-H23 lung): 87.9 µM
- TGI (HS 578T breast): 91.6 µM
- TGI (T-47D breast): > 100 µM
- TGI (CAKI-1 renal): > 100 µM
- TGI (UO-31 renal): > 100 µM
- TGI (PC-3 prostate): > 100 µM
- TGI (SNB-75 CNS): 93.9 µM
- TGI (K-562 leukemia): > 100 µM
- TGI (DU-145 prostate): > 100 µM
- TGI (OVCAR-3 ovarian): > 100 µM
- TGI (ACHN renal): > 100 µM
- TGI (RPMI-8226 leukemia): 87 µM
- TGI (MOLT-4 leukemia): 42.4 µM
- TGI (HT29 colon): > 100 µM
- TGI (SK-MEL-5 melanoma): 33.7 µM
- TGI (RXF 393 renal): 86.2 µM
- TGI (SF-295 CNS): > 100 µM
- TGI (M14 melanoma): > 100 µM
- TGI (A549 NSCLC): > 100 µM
- TGI (EKVX NSCLC): > 100 µM
- TGI (CCRF-CEM leukemia): 86 µM
- TGI (TK-10 renal): > 100 µM
- TGI (BT-549 breast): > 100 µM
- TGI (NCI-H226 lung): 65.3 µM
- TGI (HCT-116 colon): > 100 µM
- TGI (A498 renal): > 100 µM
- TGI (HL-60(TB) leukemia): 40 µM
- TGI (UACC-257 melanoma): > 100 µM
- TGI (NCI-H460 lung): > 100 µM
- TGI (MDA-N): > 100 µM
- TGI (HCC-2998 colon): > 100 µM
- TGI (MCF7 breast): > 100 µM
- TGI (KM12 colon): > 100 µM
- TGI (MDA-MB-231 breast): > 100 µM
- TGI (SK-OV-3 ovarian): 84.8 µM
- TGI (OVCAR-4 ovarian): > 100 µM
- TGI (SK-MEL-28 melanoma): > 100 µM
- TGI (NCI-H522 lung): > 100 µM
- TGI (OVCAR-8 ovarian): > 100 µM

Compound: CC1=NC(C)(C)[N+]([O-])=C1
- TGI (NCI/ADR-RES ovarian): > 10 µM
- TGI (SF-268 CNS): > 10 µM
- TGI (SNB-19 CNS): > 10 µM
- TGI (SK-MEL-2 melanoma): > 10 µM
- TGI (COLO 205 colon): > 10 µM
- TGI (SN12C renal): > 10 µM
- TGI (SW-620 colon): > 10 µM
- TGI (SR leukemia): > 10 µM
- TGI (LOX IMVI melanoma): > 10 µM
- TGI (HCT-15 colon): > 10 µM
- TGI (MALME-3M melanoma): > 10 µM
- TGI (786-0 renal): > 10 µM
- TGI (OVCAR-5 ovarian): > 10 µM
- TGI (MDA-MB-435): > 10 µM
- TGI (U251 CNS): > 10 µM
- TGI (HOP-92 NSCLC): > 10 µM
- TGI (SF-539 CNS): > 10 µM
- TGI (UACC-62 melanoma): > 10 µM
- TGI (IGROV1 ovarian): > 10 µM
- TGI (NCI-H23 lung): > 10 µM
- TGI (HS 578T breast): > 10 µM
- TGI (T-47D breast): > 10 µM
- TGI (CAKI-1 renal): > 10 µM
- TGI (UO-31 renal): > 10 µM
- TGI (PC-3 prostate): > 10 µM
- TGI (SNB-75 CNS): 4.85 µM
- TGI (K-562 leukemia): > 10 µM
- TGI (DU-145 prostate): > 10 µM
- TGI (OVCAR-3 ovarian): > 10 µM
- TGI (ACHN renal): > 10 µM
- TGI (RPMI-8226 leukemia): > 10 µM
- TGI (MOLT-4 leukemia): > 10 µM
- TGI (HT29 colon): > 10 µM
- TGI (SK-MEL-5 melanoma): > 10 µM
- TGI (RXF 393 renal): > 10 µM
- TGI (SF-295 CNS): > 10 µM
- TGI (M14 melanoma): > 10 µM
- TGI (A549 NSCLC): > 10 µM
- TGI (EKVX NSCLC): > 10 µM
- TGI (CCRF-CEM leukemia): > 10 µM
- TGI (TK-10 renal): > 10 µM
- TGI (BT-549 breast): > 10 µM
- TGI (NCI-H226 lung): > 10 µM
- TGI (HCT-116 colon): > 10 µM
- TGI (A498 renal): > 10 µM
- TGI (HL-60(TB) leukemia): > 10 µM
- TGI (UACC-257 melanoma): > 10 µM
- TGI (NCI-H460 lung): > 10 µM
- TGI (MDA-N): > 10 µM
- TGI (HOP-62 NSCLC): > 10 µM
- TGI (HCC-2998 colon): > 10 µM
- TGI (MCF7 breast): > 10 µM
- TGI (KM12 colon): > 10 µM
- TGI (MDA-MB-231 breast): > 10 µM
- TGI (SK-OV-3 ovarian): > 10 µM
- TGI (SK-MEL-28 melanoma): > 10 µM
- TGI (NCI-H522 lung): > 10 µM
- TGI (OVCAR-8 ovarian): > 10 µM
